Data reported in article PMC9942557, “Bolaamphiphile Analogues of 12-bis-THA Cl2 Are Potent Antimicrobial Therapeutics with Distinct Mechanisms of Action against Bacterial, Mycobacterial, and Fungal Pathogens” (mSphere, 2022).

Experiments:
G. vaginalis KC1 = assay: Anaerobic broth microdilution MIC (BHI, 5% horse serum); assay type: cell-based, Gardnerella vaginalis
C. parapsilosis 3209 = assay: Broth microdilution MIC; assay type: cell-based
[1] = system: Pseudomonas aeruginosa PAO1; assay: Broth microdilution MIC; assay type: cell-based
[2] = system: Pseudomonas aeruginosa NCTC 13437; assay: Broth microdilution MIC; assay type: cell-based
[3] = system: EMR Staphylococcus aureus 16 NCTC 13277; assay: Broth microdilution MIC; assay type: cell-based; conditions: EMR Staphylococcus aureus 16 NCTC 13277
G. vaginalis KC3 = assay: Anaerobic broth microdilution MIC (BHI, 5% horse serum); assay type: cell-based, Gardnerella vaginalis
[4] = system: Ac. pleuropneumoniae 2331; assay: Checkerboard synergy assay (BHI, 5% FBS, 0.01% NAD); assay type: cell-based, Actinobacillus pleuropneumoniae
[5] = system: Acinetobacter baumannii ATCC 17978; assay: Broth microdilution MIC; assay type: cell-based
[6] = system: Ac. pleuropneumoniae 2356; assay: Checkerboard synergy assay (BHI, 5% FBS, 0.01% NAD); assay type: cell-based, Actinobacillus pleuropneumoniae
[7] = system: Acinetobacter baumannii AYE; assay: Broth microdilution MIC; assay type: cell-based; conditions: Acinetobacter baumannii AYE
C. albicans 3179 = assay: Broth microdilution MIC; assay type: cell-based, Candida albicans; conditions: C. albicans 3179
[8] = system: VR Enterococcus faecium NCTC 12204; assay: Broth microdilution MIC; assay type: cell-based; conditions: VR Enterococcus faecium NCTC 12204
A. baumannii ATCC 17978 = assay: G. mellonella burn wound infection model; assay type: in vivo, Galleria mellonella; conditions: alone; for larvae rescued: 96 h
Text: In addition to the intrahemocoelic infection/therapy models described above, a recently described G. mellonella burn wound model was adopted ([37]). The burn was created using the flat head of a nail, which was heated in a blue Bunsen burner flame until red hot, cooled for 15 s, and superficially applied for 2 s to generate a 2-mm^2 burn. Larvae were then infected with a single colony of A. baumannii ATCC 17978 applied directly to the burn site, or sterile phosphate-buffered saline was applied as a control. Treatment was applied topically 1 h after infection in a volume of 5 μL. Survival was monitored over 96 h.

[9] = system: Klebsiella pneumoniae NCTC 13368; assay: Broth microdilution MIC; assay type: cell-based
[10] = system: VS Enterococcus faecalis NCTC 775; assay: Broth microdilution MIC; assay type: cell-based
C. glabrata 8018 = assay: Broth microdilution MIC; assay type: cell-based; conditions: C. glabrata 8018
P. aeruginosa NCTC 13437 = assay: Checkerboard synergy assay; assay type: cell-based, Pseudomonas aeruginosa
EMRSA-15 = assay type: in vivo, Galleria mellonella
[11] = system: Ac. pleuropneumoniae Shope; assay: Checkerboard synergy assay (BHI, 5% FBS, 0.01% NAD); assay type: cell-based, Actinobacillus pleuropneumoniae
[12] = system: VR Enterococcus faecalis NCTC 12201; assay: Broth microdilution MIC; assay type: cell-based; conditions: VR Enterococcus faecalis NCTC 12201
P. aeruginosa PAO1 = assay: Checkerboard synergy assay; assay type: cell-based, Pseudomonas aeruginosa
HeLa = assay: In vitro toxicity for cell line; assay type: cell-based, human; conditions: average ± standard error from 3 independent repeats
Text: (§1) TABLE 2 Toxicity of bolaamphiphiles for two cell lines^a | column: Toxicity (EC50 [μg/ml]) of: / 12-bis-THA Cl2; Toxicity (EC50 [μg/ml]) of: / Dequalinium; Toxicity (EC50 [μg/ml]) of: / Quino-bola; Toxicity (EC50 [μg/ml]) of: / Penta-bola; Toxicity (EC50 [μg/ml]) of: / Hepta-bola; Toxicity (EC50 [μg/ml]) of: / Octa-bola; Toxicity (EC50 [μg/ml]) of: / Octa-C10; Toxicity (EC50 [μg/ml]) of: / Octa-C8; Toxicity (EC50 [μg/ml]) of: / Octa-C6

HEK293 = assay: In vitro toxicity for cell line; assay type: cell-based, human; conditions: HEK293; average ± standard error from 3 independent repeats
Text: as §1

C. krusei 3876 = assay: Broth microdilution MIC; assay type: cell-based
P. aeruginosa RP73 = assay: Checkerboard synergy assay; assay type: cell-based, Pseudomonas aeruginosa
C. tropicalis 8760 = assay: Broth microdilution MIC; assay type: cell-based; conditions: C. tropicalis 8760
Klebsiella pneumoniae M6 = assay: Broth microdilution MIC; assay type: cell-based
[13] = system: Escherichia coli NCTC 12923; assay: Broth microdilution MIC; assay type: cell-based
[14] = system: Ac. pleuropneumoniae 3370; assay: Checkerboard synergy assay (BHI, 5% FBS, 0.01% NAD); assay type: cell-based, Actinobacillus pleuropneumoniae
C. auris temp probe = assay: Broth microdilution MIC; assay type: cell-based, Candida auris; conditions: C. auris temp probe
G. vaginalis NCTC 10287 = assay: Anaerobic broth microdilution MIC (BHI, 5% horse serum); assay type: cell-based, Gardnerella vaginalis
[15] = system: Prevotella bivia NCTC 11156; assay: as above; assay type: cell-based
G. vaginalis KC2 = assay: as above; assay type: cell-based, Gardnerella vaginalis
C. albicans 3281 = assay: Broth microdilution MIC; assay type: cell-based, Candida albicans; conditions: C. albicans 3281
[16] = system: EMR Staphylococcus aureus 15 NCTC 13616; assay: Broth microdilution MIC; assay type: cell-based; conditions: EMR Staphylococcus aureus 15 NCTC 13616
C. parapsilosis = assay: Broth microdilution MIC; assay type: cell-based

Q: `Nc1c2c([n+](CCCCCCCCCC[n+]3c4c(c(N)c5ccccc53)CCCCCC4)c3ccccc13)CCCCCC2` [Octa-C10] was tested. Which MIC (G. vaginalis KC1) did it give?
A: 0.5 to 1 µg/mL

Q: And the MIC (C. parapsilosis 3209)?
A: 2 µg/mL

Q: What about the MIC [1] of the same compound?
A: >32 µg/mL

Q: And the MIC [2]?
A: >32 µg/mL

Q: And the MIC [3]?
A: 0.25 µg/mL

Q: And the MIC (G. vaginalis KC3)?
A: 0.5 µg/mL

Q: What about the “MIC alone Bolalipid” value ([4]; Octa-C10/enrofloxacin) of the same compound?
A: 4 to 8 µg/mL

Q: And the “MIC alone Bolalipid” value ([4]; Octa-C10/streptomycin)?
A: 4 to 8 µg/mL

Q: And the MIC [5]?
A: 8 µg/mL

Q: What about the “MIC alone Bolalipid” value ([6]; Octa-C10/enrofloxacin) of the same compound?
A: 4 to 8 µg/mL

Q: What about the “MIC alone Bolalipid” value ([6]; Octa-C10/streptomycin) of the same compound?
A: 4 to 8 µg/mL

Q: What about the MIC [7] of the same compound?
A: 16 µg/mL

Q: And the MIC (C. albicans 3179)?
A: 0.5 µg/mL

Q: What about the MIC [8] of the same compound?
A: 0.25 µg/mL

Q: And the larvae rescued (A. baumannii ATCC 17978; 5 mg/kg topical)?
A: 48%

Q: And the larvae rescued (A. baumannii ATCC 17978; 10 mg/kg topical)?
A: 60%

Q: What about the protection (A. baumannii ATCC 17978; lower doses (2.5 and 1.25 mg/kg)) of the same compound?
A: ineffective

Q: What about the MIC [9] of the same compound?
A: 32 µg/mL

Q: And the MIC [10]?
A: 2 µg/mL

Q: And the MIC (C. glabrata 8018)?
A: 0.5 µg/mL

Q: What about the “MIC alone Bolalipid” value (P. aeruginosa NCTC 13437) of the same compound?
A: 32 µg/mL

Q: What about the protection (EMRSA-15; in vivo) of the same compound?
A: none of them providing significant protection

Q: What about the infected larvae rescued (EMRSA-15; lowest dose, 0.1 mg/kg) of the same compound?
A: approximately a third

Q: What about the “MIC alone Bolalipid” value ([11]; Octa-C10/enrofloxacin) of the same compound?
A: 1 µg/mL

Q: What about the “MIC alone Bolalipid” value ([11]; Octa-C10/streptomycin) of the same compound?
A: 1 µg/mL

Q: What about the MIC [12] of the same compound?
A: 1 µg/mL

Q: And the “MIC alone Bolalipid” value (P. aeruginosa PAO1)?
A: 64 µg/mL

Q: What about the “Toxicity (EC50)” value (HeLa) of the same compound?
A: 10.7 ± 0.3 µg/mL

Q: What about the “Toxicity (EC50)” value (HEK293) of the same compound?
A: 7.0 ± 0.5 µg/mL

Q: And the MIC (C. krusei 3876)?
A: 2 µg/mL

Q: And the “MIC alone Bolalipid” value (P. aeruginosa RP73)?
A: 8 µg/mL

Q: What about the MIC (C. tropicalis 8760) of the same compound?
A: 0.25 µg/mL

Q: And the MIC (Klebsiella pneumoniae M6)?
A: 16 µg/mL

Q: And the MIC [13]?
A: 2 µg/mL

Q: And the “MIC alone Bolalipid” value ([14]; Octa-C10/enrofloxacin)?
A: 4 to 8 µg/mL

Q: What about the “MIC alone Bolalipid” value ([14]; Octa-C10/streptomycin) of the same compound?
A: 4 to 8 µg/mL

Q: And the MIC (C. auris temp probe)?
A: 4 µg/mL

Q: And the MIC (G. vaginalis NCTC 10287)?
A: 0.5 to 1 µg/mL

Q: And the MIC [15]?
A: 0.125 µg/mL

Q: What about the MIC (G. vaginalis KC2) of the same compound?
A: 2 µg/mL

Q: What about the MIC (C. albicans 3281) of the same compound?
A: 1 µg/mL

Q: And the MIC [16]?
A: 0.25 µg/mL

Q: And the MIC (C. parapsilosis)?
A: 4 µg/mL
